“Also recorded” adds a separate entry of the source. Ends that are not written are not given here.

One assay deals with Interleukin-11. In words: cell-based or functional assay.
Another assay relates to IL-11/IL-11R interaction. Briefly: Inhibition of the productive interaction of IL-11 with IL-11R by IL-11 binding peptides.
For assay [1], the system named is cocultures of murine bone marrow and calvaria cells. Briefly: TRAP assay: IL-11 induced osteoclast formation in cocultures of murine bone marrow and calvaria cells. It counts as cell-based. As to conditions: for IL-11 induced osteoclast formation (TRAP+ multinucleated cells): 20 ng/ml IL-11, 10, 100 or 1000 ng/ml test substance, 9 days, FIGS. 7A, 7B, 8, 12. The text has this:
Particular IL-11 antagonists useful in the treatment of IL-11 related bone density disorders may be identified using the TRAP assay and the bone nodule formation assay, discussed herein. The TRAP assay is known in the art and involves co-culturing murine calvarla (osteoblasts) and bone marrow cells in vitro and then quantifying osteoclast formation by counting the number of tartrate-resistant acid phosphatase positive (TRAP+) multinucleated cells. […] These potential IL-11 antagonists may be screened to determine if they are IL-11 antagonists by examining their activity in the TRAP assay and the bone nodule formation assay.
Post menopausal osteoporosis is characterized by a general reduction in bone mass, resulting from an imbalance between osteoblast-mediated bone formation and bone resorption by the osteoclast. While the osteoblast is responsible for the formation of new bone or osteoid, it also appears to control the activation and/or number of osteoclasts by releasing cytokines such as IL-6 or IL-11. This process can be examined using a “TRAP assay” which involves co-culturing murine calvaria (osteoblasts) and bone marrow cells in vitro and then quantifying osteoclast formation by counting the number of tartrate-resistant acid phosphatase positive (TRAP+) multinucleated cells. Ovariectomized (OVX) rats or mice provide a satisfactory animal model for postmenopausal women in studies of osteoporosis.
The effect of IL-11 on osteoclast development in cocultures of murine bone marrow and calvaria cells was examined using standard techniques. Briefly, bone marrow cultures were established by removing femurs from mice, dissecting away soft tissue, and removing the distal and proximal ends of the femur. The marrow was then flushed with 5 ml α MEM and 1.0% penicilin-streptomycin using a 25 gauge needle. The bone marrow cells were then suspended to a concentration of 5,000,000 cells per ml in α MEM containing 15% fetal calf serum (charcoal treated) to remove cells adherent to plastic. The non-adherent cells were then co cultured for an additional 9 days with murine calvaria cells prior to being fixed and stained for TRAPase activity (stains were obtained from Sigma Chemical Co., St. Louis, Mo.). TRAP+MNC's have the ability to form resorption pits in smooth cortical bone slices and are therefore considered to be of osteoclast origin.
The effect of IL-11 on osteoclast development in cocultures of murine bone marrow and calvaria cells was examined by maintaining these cultures in the presence of various specific concentrations of IL-11 for 9 days. After 9 days of culture, the cells were stained for TRAPase activity and the number of multinucleated TRAP+cells were determined. The results of this experiment are depicted in Table I. Data are expressed as mean +/−SEM. […]

Assay [2] has as its system murine calvaria cell culture. Briefly: Bone nodule formation assay in the presence of exogenous IL-11 and IL-11 antagonists. Particulars: 20 ng/ml exogenous IL-11; for reversal of the inhibitory effect of IL-11 on bone nodule formation: 21 days, FIGS. 9, 10. It is filed as cell-based. How it is done: Bone nodule formation was measured using standard techniques. Briefly, calvaria cell cultures were established as follows: Calvaria cells were obtained from 2 day old fetal mouse calavariae by collagenase digestion. The cells were then cultured for 21 days in the presence of 0.5 mM ascorbic acid and 10 mM β-glycerophosphate. Where indicated in the experimental descriptions below, IL-11 and the mutant IL-11 receptor of experiment 4 were added to the culture at day 0 and every 3-4 days thereafter until the removal of the medium for analysis. Bone nodule formation was quantified by counting alizarin red stain nodules under a light microscope.
The effect of a gp130 binding region mutant soluble IL-11 receptor of type described in Experiment 4 and produced by the process of Experiment 3 on bone nodule formation in the presence of 20 ng/ml of exogenous IL-11 was assessed, and the results are depicted in FIG. 9. […] Thus, IL-11 antagonists such as mutant IL-11Rs can enhance bone nodule formation.
It was desired to determine if bone nodule formation could be modulated in a manner similar to that reported in Example 6 using an IL-11 antagonist peptide such as the one used in Example 5. To achieve this, the procedure of Example 6 was repeated, with the substitution of peptide 1 for the solubilized mutant IL-11 receptor. The results of this experiment are depicted in FIG. 10.

Assay [3] deals with murine calvaria cells (primary osteoblasts). In words: Bone nodule formation assay, effect of IL-11. As to conditions: various concentrations of IL-11; 250 μM ascorbic acid, 10 mM β-glycerol phosphate; FIG. 5. It is filed as cell-based. As to the method: The effect of IL-11 on bone formation was examined using the bone nodule formation assay. Murine calvaria cells (primary osteoblasts) were cultured in the presence of 250 μM ascorbic add and 10 mM β-glycerol phosphate, and in the presence of various amounts of interleukin-11. After culturing, the culture media were plated out and the number of bone nodules per plate was counted. The results are shown on the accompanying FIG. 5, where number of bone nodules per plate is plotted as the vertical axis, with the different concentrations of interleukin on the horizontal axis, not to scale. Each bar represents the result on experiments containing a different concentration of interleukin-11, as noted on FIG. 5.

Turning to “H289→Y289 mutant solubilized IL-11 receptor (from UniProt Q14626 24-370)”, in the assay with Interleukin-11, the concentration allowing enhanced bone nodule formation in the presence of 20 ng/ml exogenous IL-11 amounted to 10 ng/mL.
With RRLRASW [SEQ ID NO. 5], in the assay with IL-11/IL-11R interaction, the “productive interaction of IL-11 with IL-11R” value (“productive interaction” for short) was “capable of inhibiting the productive interaction of IL-11 and IL-11R”.
Regarding RRLRASWTYPASWPCQPHFL [peptide 1], in assay [1], the “IL-11 induced osteoclast formation (TRAP+ multinucleated cells)” value (“IL-11 induced osteoclast formation” for short) was “inhibits IL-11 induced osteoclast formation”. In addition, the “reversal of the inhibitory effect of IL-11 on bone nodule formation” value in assay [2] is “able to reduce the inhibitory effects”. Also, the “bone nodule formation relative to control samples” value in assay [2] (50 ng/ml peptide, FIG. 10) is recorded as “allowed bone nodule formation in excess of that seen in the control samples”. The “productive interaction” value in the assay on IL-11/IL-11R interaction is “binds IL-11 and prevents its productive interaction with IL-11R”.
On to “Ser Ile Leu Arg Pro Asp Pro Pro Gin Gly Leu Arg Val Glu Ser Val Pro Gly Tyr Pro (SILRPDPPQGLRVESVPGYP; listed as Homo sapiens) [SEQ. ID. NO. 6]”, for which the “productive interaction” value in the assay on IL-11/IL-11R interaction was “has been found to inhibit the productive interaction between IL-11 and IL-11R”.
On to “Thr Tyr Pro Ala Ser Trp Pro Cys Gin Pro His Phe Leu Leu Lys Phe Arg Leu Gln Tyr (TYPASWPCQPHFLLKFRLQY; listed as Homo sapiens) [peptide 2]”, for which the “IL-11 induced osteoclast formation” value in assay [1] is on record as “does not”. The “reversal of the inhibitory effect of IL-11 on bone nodule formation” value in assay [2] is “unable to reduce the inhibition of nodule formation by IL-11”.

B1: IL-11: cytokine interleukin-11 (protein, UniProt P20809 22-199, looked up)
Interleukin-11: PGPPPGPPRVSPDPRAELDSTVLLTRSLLADTRQLAAQLRDKFPADGDHNLDSLPTLAMSAGALGALQLPGVLTRLRADLLSYLRHVQWLRRAGGSSLKTLEPELGTLQARLDRLLRRLQLLMSRLALPQPPPDPPAPPLAPPSSAWGGIRAAHAILGGLHLTLDWAVRGLLLLKTRL
Regarding B1, the “number of bone nodules per plate” value in assay [3] was “number of bone nodules per plate decreased; also recorded: inhibits bone formation”. Also, the “osteoclast formation in vitro, effect of IL-11” value in assay [1] (cocultures of murine calvaria and bone marrow cells) is “potent stimulator of osteoclast formation”.

B2: H289→Y289 mutant solubilized IL-11 receptor: gp130 binding region mutant (H289 to Y) recombinant soluble human IL-11 receptor of Example 3 (protein)
chain: SPCPQAWGPPGVQYGQPGRSVKLCCPGVTAGDPVSWFRDGEPKLLQGPDSGLGHELVLAQADSTDEGTYICQTLDGALGGTVTLQLGYPPARPVVSCQAADYENFSCTWSPSQISGLPTRYLTSYRKKTVLGADSQRRSPSTGPWPCPQDPLGAARCVVHGAEFWSQYRINVTEVNPLGASTRLLDVSLQSILRPDPPQGLRVESVPGYPRRLRASWTYPASWPCQPHFLLKFRLQYRPAQHPAWSTVEPAGLEEVITDAVAGLPYAVRVSARDFLDAGTWSTWSPEAWGTPSTGTIPKEIPAWGQLHTQPEVEPQVDSPAPPRPSLQPHPRLLDHRDSVEQVAVLA
modifications: left off: small tags and cut ends
On to B2, for which, in assay [1], the “IL-11 induced osteoclast formation” value is listed as “capable of inhibiting IL-11-induced osteoclast formation”. For the same molecule, in assay [2] (10 ng/ml mutant receptor, FIG. 9), the “bone nodule formation relative to the level in the absence of exogenous IL-11” value is given as “enhanced bone nodule formation”. For the same molecule, the “reversal of the inhibitory effect of IL-11 on bone nodule formation” value in assay [2] is given as “can reverse the effect of exogenous IL-11”.

The values above are taken from patent publication US6846907B1, “Osteoporosis treatment” (Hamilton Civic Hospitals Research Centre, priority 1999, dated 2005).
